Results: patent publication US20220340629A1, “Myosin Derived Peptides and Related Compounds with Anticoagulant Activities” (THE SCRIPPS RESEARCH INSTITUTE, priority 0001, published 2022)
Starred links: 1 amine or outer side, 2 acyl side, 3 side chain; linkers in the order of their positions; H or OH if unused. Positions of bridges follow the written chain, without caps; N, C: chain ends. Non-standard residues stand in square brackets, D forms with d. Residues, ends and D or L forms follow the SMILES beside them. Suc = O=C(CCC(=O)[*:2])[*:1]; Nle = CCCC[C@H](N)C(=O)O

Tests used:
[1] = system: thrombin generation in human platelet poor plasma with skeletal muscle myosin; assay: Assay 2A: thrombin generation, recalcification of human platelet poor plasma + myosin; assay type: biochemical; settings: human platelet poor plasma 30%, myosin 50 nM, CaCl2 10 mmol/L; read-out: 2A (recalcification +myosin)
Experimental: Activities of the various peptides and derivative compounds were also examined via assays using recalcification of human plasma. [One of] these assay format (2A) involves monitoring thrombin generation in platelet poor plasma (PPP). Specifically, pooled normal human platelet poor plasma (PPP) (obtained from George King Bio Medical Inc., Overland Park, Kans.) (30%) was incubated with skeletal muscle myosin at 50 nM in the presence of peptide in DMSO or DMSO alone for 5 min at 37° C. Then, fluorogenic thrombin substrate solution (Z-Gly-Gly-Arg-AMC) (I-1140) with CaCl2 (10 mmol/L final) alone was added to the reaction mixture (total 110 μl) to initiate coagulation. Thrombin generation was followed continuously for 25 min using SPECTRAmax GEMINI XS fluorometer (Molecular Devices, Sunnyvale, Calif.) with excitation and emission wavelengths set at 360 and 460 nm, respectively. The first derivative of fluorescence versus time was used to produce thrombin generation curves with the correction for substrate consumption and inner filter effect. For this assay 96 well plate (total 110 μL) or 384 well plates (total 30 μL) were used.
Activities obtained from Assay 2A (recalcification of human plasma in the presence of myosin) were used to rank the various peptides listed in Table 3. As noted above, this assay monitors recalcification of plasma to stimulate thrombin generation. In this assay, potency of the compounds was determined as the peptide concentration for 50% inhibition of thrombin generation, defined as “IC50”.

[2] = system: skeletal muscle myosin-supported prothrombin activation by factors Xa and Va; assay: Assay 1A: prothrombin activation by factor Xa/factor Va/myosin in purified system; assay type: biochemical, human factors Xa and Va; rabbit skeletal muscle myosin; settings: for inhibition of myosin-supported prothrombin activation at 100 μM: peptide 100 μM, FIG. 1A

Compound	IC50 [1] [µM]	further results
CC[C@H](C)[C@H](NC(=O)[C@H](C)NC(=O)[C@H](CCC(=O)O)NC(=O)[C@H](CCCNC(=N)N)NC(=O)[C@H](CCCNC(=N)N)NC(=O)[C@H](CCC(=O)O)NC(=O)[C@@H](NC(=O)[C@H](CCSC)NC(=O)[C@H](CCCNC(=N)N)NC(=O)[C@H](CCC(N)=O)NC(=O)[C@H](Cc1ccc(O)cc1)NC(=O)[C@H](CCC(=O)O)NC(=O)[C@@H](NC(=O)[C@H](CCCNC(=N)N)NC(=O)[C@H](C)NC(=O)[C@H](CC(C)C)NC(=O)[C@H](Cc1ccccc1)NC(=O)CNC(=O)[C@H](CCCNC(=N)N)NC(=O)[C@H](CS)NC(=O)[C@H](CCCNC(=N)N)NC(=O)[C@H](C)N)C(C)C)C(C)C)C(=O)N[C@@H](Cc1ccccc1)C(=O)N[C@@H](CS)C(=O)N[C@H](C(=O)N[C@@H](CCC(N)=O)C(=O)N[C@H]1CCCCNC(=O)CCC(=O)NCCCC[C@@H](C(=O)N[C@H](C(=O)N[C@@H](CCCCN)C(=O)N[C@@H](Cc2c[nH]cn2)C(=O)N[C@@H](Cc2c[nH]c3ccccc23)C(=O)N2CCC[C@H]2C(=O)N[C@@H](Cc2c[nH]c3ccccc23)C(N)=O)C(C)C)NC(=O)[C@H](CCSC)NC(=O)[C@H](Cc2ccccc2)NC(=O)[C@H](CO)NC(=O)[C@H](CCCNC(=N)N)NC(=O)[C@H]([C@@H](C)CC)NC(=O)[C@H](CC(N)=O)NC1=O)[C@@H](C)CC [HC077] (H-ARCRGFLARVEYQRMVERREAIFCIQKNIRSFMKVKHWPW-NH2; linker 27-34 via Suc; N-terminus and C-terminus assumed)	15	–
CCCC[C@H](NC(=O)[C@H](Cc1ccccc1)NC(=O)[C@H](CO)NC(=O)[C@H](CCCNC(=N)N)NC(=O)[C@@H](NC(=O)[C@H](CC(N)=O)NC(=O)[C@H](Cc1ccc(O)cc1)NC(=O)[C@H](CCC(N)=O)NC(=O)[C@@H](NC(=O)[C@H](CS)NC(=O)[C@H](Cc1ccccc1)NC(=O)[C@@H](NC(=O)[C@H](C)NC(=O)[C@H](CCC(=O)O)NC(=O)[C@H](CCCNC(=N)N)NC(=O)[C@H](CCCNC(=N)N)NC(=O)[C@H](CCC(=O)O)NC(=O)[C@@H](NC(=O)[C@H](CCCC)NC(=O)[C@H](CCCNC(=N)N)NC(=O)[C@H](CCC(N)=O)NC(=O)[C@H](Cc1ccc(O)cc1)NC(=O)[C@H](CCC(=O)O)NC(=O)[C@@H](NC(=O)[C@H](CCCNC(=N)N)NC(=O)[C@H](C)NC(=O)[C@H](CC(C)C)NC(=O)[C@H](Cc1ccccc1)NC(=O)CNC(=O)[C@H](CCCNC(=N)N)NC(=O)[C@H](CS)NC(=O)[C@H](CCCNC(=N)N)NC(=O)[C@H](C)N)C(C)C)C(C)C)[C@@H](C)CC)[C@@H](C)CC)[C@@H](C)CC)C(=O)N[C@@H](CC(N)=O)C(=O)N[C@H](C(=O)N[C@@H](CCCCN)C(=O)N[C@@H](Cc1c[nH]cn1)C(=O)N[C@@H](Cc1c[nH]c2ccccc12)C(=O)N1CCC[C@H]1C(=O)N[C@@H](Cc1c[nH]c2ccccc12)C(N)=O)C(C)C [HC095] (H-ARCRGFLARVEYQR[Nle]VERREAIFCIQYNIRSF[Nle]NVKHWPW-NH2; N-terminus and C-terminus assumed)	10	–
CC[C@H](C)[C@H](NC(=O)[C@H](C)N)C(=O)N[C@@H](Cc1ccccc1)C(=O)N[C@@H](CS)C(=O)N[C@H](C(=O)N[C@@H](CCC(N)=O)C(=O)N[C@@H](Cc1ccc(O)cc1)C(=O)N[C@@H](CC(N)=O)C(=O)N[C@H](C(=O)N[C@@H](CCCNC(=N)N)C(=O)N[C@@H](CO)C(=O)N[C@@H](Cc1ccccc1)C(=O)N[C@@H](CCSC)C(=O)N[C@@H](CC(N)=O)C(=O)N[C@H](C(=O)N[C@@H](CCCCN)C(=O)N[C@@H](Cc1c[nH]cn1)C(=O)N[C@@H](Cc1c[nH]c2ccccc12)C(=O)N1CCC[C@H]1C(=O)N[C@@H](Cc1c[nH]c2ccccc12)C(=O)N[C@@H](CCSC)C(=O)N[C@@H](CCCCN)C(=O)N[C@@H](CC(C)C)C(=O)N[C@@H](Cc1ccccc1)C(=O)N[C@@H](Cc1ccccc1)C(=O)N[C@@H](CCCCN)C(=O)N[C@H](C(=O)N[C@@H](CCCCN)C(N)=O)[C@@H](C)CC)C(C)C)[C@@H](C)CC)[C@@H](C)CC [HC101] (H-AIFCIQYNIRSFMNVKHWPWMKLFFKIK-NH2; N-terminus and C-terminus assumed)	9	–
CC[C@H](C)[C@H](NC(=O)[C@H](C)NC(=O)[C@H](CCC(=O)O)NC(=O)[C@H](CCCNC(=N)N)NC(=O)[C@H](CCCNC(=N)N)NC(=O)[C@H](CCC(=O)O)NC(=O)[C@@H]1CCCCNC(=O)CCC(=O)NCCCC[C@@H]2NC(=O)[C@H](C)NC(=O)[C@H](CC(C)C)NC(=O)[C@H](Cc3ccccc3)NC(=O)CNC(=O)[C@H](CCCNC(=N)N)NC(=O)[C@@H](NC(=O)[C@H](CCCNC(=N)N)NC(=O)[C@H](C)N)CCCCNC(=O)CCC(=O)NCCCC[C@H](NC2=O)C(=O)N[C@@H](CCC(=O)O)C(=O)N[C@@H](Cc2ccc(O)cc2)C(=O)N[C@@H](CCC(N)=O)C(=O)N[C@@H](CCCNC(=N)N)C(=O)N[C@@H](CCSC)C(=O)N1)C(=O)N[C@@H](Cc1ccccc1)C(=O)N[C@@H](CS)C(=O)N[C@H](C(=O)N[C@@H](CCC(N)=O)C(=O)N[C@@H](Cc1ccc(O)cc1)C(=O)N[C@@H](CC(N)=O)C(=O)N[C@H](C(=O)N[C@@H](CCCNC(=N)N)C(=O)N[C@@H](CO)C(=O)N[C@@H](Cc1ccccc1)C(=O)N[C@@H](CCSC)C(=O)N[C@@H](CC(N)=O)C(=O)N[C@H](C(=O)N[C@@H](CCCCN)C(=O)N[C@@H](Cc1c[nH]cn1)C(=O)N[C@@H](Cc1c[nH]c2ccccc12)C(=O)N1CCC[C@H]1C(=O)N[C@@H](Cc1c[nH]c2ccccc12)C(N)=O)C(C)C)[C@@H](C)CC)[C@@H](C)CC [HC153] (H-ARKRGFLAKKEYQRMKERREAIFCIQYNIRSFMNVKHWPW-NH2; linker 3-10, 9-16 via Suc (inferred); N-terminus and C-terminus assumed)	11	–
CC[C@H](C)[C@H](NC(=O)[C@H](C)NC(=O)[C@H](CCC(=O)O)NC(=O)[C@H](CCCNC(=N)N)NC(=O)[C@H](CCCNC(=N)N)NC(=O)[C@H](CCC(=O)O)NC(=O)[C@@H]1CCCCNC(=O)CCC(=O)NCCCC[C@@H]2NC(=O)[C@H](C)NC(=O)[C@H](CC(C)C)NC(=O)[C@H](Cc3ccccc3)NC(=O)[C@@H](NC(=O)[C@H](CCCNC(=N)N)NC(=O)[C@H](CS)NC(=O)[C@H](CCCNC(=N)N)NC(=O)[C@H](C)N)CCCCNC(=O)CCC(=O)NCCCC[C@H](NC(=O)[C@H](CCC(=O)O)NC(=O)[C@H](C(C)C)NC2=O)C(=O)N[C@@H](CCC(N)=O)C(=O)N[C@@H](CCCNC(=N)N)C(=O)N[C@@H](CCSC)C(=O)N1)C(=O)N[C@@H](Cc1ccccc1)C(=O)N[C@@H](CS)C(=O)N[C@H](C(=O)N[C@@H](CCC(N)=O)C(=O)N[C@@H](Cc1ccc(O)cc1)C(=O)N[C@@H](CC(N)=O)C(=O)N[C@H](C(=O)N[C@@H](CCCNC(=N)N)C(=O)N[C@@H](CO)C(=O)N[C@@H](Cc1ccccc1)C(=O)N[C@@H](CCSC)C(=O)N[C@@H](CC(N)=O)C(=O)N[C@H](C(=O)N[C@@H](CCCCN)C(=O)N[C@@H](Cc1c[nH]cn1)C(=O)N[C@@H](Cc1c[nH]c2ccccc12)C(=O)N1CCC[C@H]1C(=O)N[C@@H](Cc1c[nH]c2ccccc12)C(N)=O)C(C)C)[C@@H](C)CC)[C@@H](C)CC [HC154] (H-ARCRKFLAKVEKQRMKERREAIFCIQYNIRSFMNVKHWPW-NH2; linker 5-12, 9-16 via Suc (inferred); N-terminus and C-terminus assumed)	9.4	–
CC[C@H](C)[C@H](NC(=O)[C@H](C)NC(=O)[C@H](CCC(=O)O)NC(=O)[C@H](CCCNC(=N)N)NC(=O)[C@H](CCCNC(=N)N)NC(=O)[C@H](CCC(=O)O)NC(=O)[C@@H]1CCCCNC(=O)CCC(=O)NCCCC[C@@H]2NC(=O)[C@H](C)NC(=O)[C@H](CC(C)C)NC(=O)[C@@H](NC(=O)CNC(=O)[C@H](CCCNC(=N)N)NC(=O)[C@H](CS)NC(=O)[C@H](CCCNC(=N)N)NC(=O)[C@H](C)N)CCCCNC(=O)CCC(=O)NCCCC[C@H](NC(=O)[C@H](Cc3ccc(O)cc3)NC(=O)[C@H](CCC(=O)O)NC(=O)[C@H](C(C)C)NC2=O)C(=O)N[C@@H](CCCNC(=N)N)C(=O)N[C@@H](CCSC)C(=O)N1)C(=O)N[C@@H](Cc1ccccc1)C(=O)N[C@@H](CS)C(=O)N[C@H](C(=O)N[C@@H](CCC(N)=O)C(=O)N[C@@H](Cc1ccc(O)cc1)C(=O)N[C@@H](CC(N)=O)C(=O)N[C@H](C(=O)N[C@@H](CCCNC(=N)N)C(=O)N[C@@H](CO)C(=O)N[C@@H](Cc1ccccc1)C(=O)N[C@@H](CCSC)C(=O)N[C@@H](CC(N)=O)C(=O)N[C@H](C(=O)N[C@@H](CCCCN)C(=O)N[C@@H](Cc1c[nH]cn1)C(=O)N[C@@H](Cc1c[nH]c2ccccc12)C(=O)N1CCC[C@H]1C(=O)N[C@@H](Cc1c[nH]c2ccccc12)C(N)=O)C(C)C)[C@@H](C)CC)[C@@H](C)CC [HC155] (H-ARCRGKLAKVEYKRMKERREAIFCIQYNIRSFMNVKHWPW-NH2; linker 6-13, 9-16 via Suc (inferred); N-terminus and C-terminus assumed)	9.5	–
CN1CCN(CCCN2c3ccccc3Sc3ccc(C(F)(F)F)cc32)CC1 [TFP, trifluoperazine, reference compound]	–	inhibition of myosin-supported prothrombin activation ([2]; dose-dependent studies, FIG. 4, TFP 0-100 μM, ELC peptides 0-300 μM): inhibits
COC(=O)N1CCN(Cc2cccc(NC(=O)Nc3ccc(C)nc3)c2F)CC1 [omecamtiv mecarbil, reference compound]	–	inhibition of myosin's procoagulant activity ([2]; up to 50 μM, data not shown): did not inhibit
Ac-GAELRHVLATLGEKMKEEEVEALMA-NH (Ac-GAELRHVLATLGEKMKEEEVEALMA-NH2) [ELC149-173]	–	inhibition of myosin-supported prothrombin activation at 100 μM [2]: did not
Ac-SNEELNAKKIEFEQFLPMMQAISN-NH2 [ELC99-122]	–	inhibition of myosin-supported prothrombin activation at 100 μM [2]: did not
